Laboratory results published in PMC1977928, “Chlorambucil-monoglutathionyl conjugate is sequestered by human alpha class glutathione S-transferases” (British Journal of Cancer, 1992).

Columns and labels:
Assay type in all cases: biochemical
GST P1-1 = target: T1, GST P1-1 (Homo sapiens, UniProt P09211); experiment: inhibition of CDNB conjugation activity
T1 construct: gene GSTP1; homodimer purified from human kidney cytosol

GST M1a-1a = target: T2, GST M1a-1a (Homo sapiens, UniProt P09488); experiment: inhibition of CDNB conjugation activity
T2 construct: gene GSTM1; homodimer purified from human liver cytosol
T2 sequence (P09488 2-218): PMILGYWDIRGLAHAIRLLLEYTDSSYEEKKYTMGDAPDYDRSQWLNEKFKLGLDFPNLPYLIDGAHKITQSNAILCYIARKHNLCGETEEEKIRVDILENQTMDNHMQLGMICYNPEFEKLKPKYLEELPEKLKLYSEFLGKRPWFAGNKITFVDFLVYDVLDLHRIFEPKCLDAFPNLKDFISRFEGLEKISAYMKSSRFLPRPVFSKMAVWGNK

GST A1-1 = target: T3, GST A1-1 (Homo sapiens, UniProt P08263); experiment: inhibition of CDNB conjugation activity (Dixon and Hanes plots)
T3 construct: gene GSTA1; homodimer purified from human liver cytosol
T3 sequence (P08263 2-222): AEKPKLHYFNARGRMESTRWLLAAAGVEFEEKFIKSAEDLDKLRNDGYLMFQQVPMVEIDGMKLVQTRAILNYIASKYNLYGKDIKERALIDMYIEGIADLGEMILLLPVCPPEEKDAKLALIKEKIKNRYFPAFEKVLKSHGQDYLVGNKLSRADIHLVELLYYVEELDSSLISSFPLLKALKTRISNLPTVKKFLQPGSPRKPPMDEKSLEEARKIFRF
Excerpt: inhibition of CDNB conjugation activity (Dixon and Hanes plots) on GST A1-1 | CHBSG was a pure competitive inhibitor of the activity of GSTs A1-1 and A2-2 towards 1-chloro-2,4-dinitrobenzene

GST A2-2 = target: T4, GST A2-2 (Homo sapiens, UniProt P09210); experiment: as above
T4 construct: gene GSTA2; homodimer purified from human liver cytosol
T4 sequence (P09210 2-222): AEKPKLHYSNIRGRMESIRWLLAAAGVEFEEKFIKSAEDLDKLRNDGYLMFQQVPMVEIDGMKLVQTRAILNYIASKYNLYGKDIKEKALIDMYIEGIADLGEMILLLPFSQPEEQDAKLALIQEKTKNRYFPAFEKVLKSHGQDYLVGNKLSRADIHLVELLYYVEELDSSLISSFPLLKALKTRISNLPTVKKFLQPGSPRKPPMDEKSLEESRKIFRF

T1 sequence (P09211 2-210): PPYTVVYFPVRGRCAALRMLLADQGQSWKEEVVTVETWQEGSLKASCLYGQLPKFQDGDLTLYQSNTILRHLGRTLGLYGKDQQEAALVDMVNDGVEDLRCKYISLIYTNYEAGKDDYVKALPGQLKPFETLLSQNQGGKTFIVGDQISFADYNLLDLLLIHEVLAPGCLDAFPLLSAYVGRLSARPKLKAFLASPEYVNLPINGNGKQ

For `N[C@@H](CCC(=O)N[C@@H](CSCCN(CCCl)c1ccc(CCCC(=O)O)cc1)C(=O)NCC(=O)O)C(=O)O` [CHBSG], the “inhibition of CDNB conjugation activity” value (GST P1-1) was greater than 10 µM, the “inhibition of CDNB conjugation activity” value (GST M1a-1a) was greater than 10 µM and the Ki (GST A1-1) was 1300 nM. The Ki (GST A2-2) was 1200 nM.
